Data taken from patent publication US4443436A, “C-20-Modified macrolide derivatives of the macrolide antibiotics tylosin, desmycosin, macrocin, and lactenocin” (Eli Lilly and Company, priority 1982, dated 1984).
Converted amounts (≈) assume the structure as drawn. Like-named read-outs stand apart in the source and are kept apart here.

Experiments:
[1] = tested on: Staphylococcus aureus X1.1; experiment: MIC, standard agar-dilution assay, Staphylococcus aureus X1.1; type: cell-based
[2] = tested on: Staphylococcus aureus V41; experiment: MIC, standard agar-dilution assay, Staphylococcus aureus V41; type: cell-based
[3] = tested on: Staphylococcus aureus X400; experiment: MIC, standard agar-dilution assay, Staphylococcus aureus X400; type: cell-based
[4] = tested on: Staphylococcus aureus S13E; experiment: MIC, standard agar-dilution assay, Staphylococcus aureus S13E; type: cell-based
[5] = tested on: Staphylococcus epidermidis EPI1; experiment: MIC, standard agar-dilution assay, Staphylococcus epidermidis EPI1; type: cell-based
[6] = tested on: Staphylococcus epidermidis EPI2; experiment: MIC, standard agar-dilution assay, Staphylococcus epidermidis EPI2; type: cell-based
[7] = tested on: Streptococcus pyogenes C203; experiment: MIC, standard agar-dilution assay, Streptococcus pyogenes C203; type: cell-based; details: Streptococcus pyogenes C203, agar dilution
[8] = tested on: Streptococcus pneumoniae Park I; experiment: microbe, parasite or virus in culture; type: cell-based
[9] = tested on: Streptococcus Group D X66; experiment: MIC, standard agar-dilution assay, Streptococcus Group D X66; type: cell-based; details: Streptococcus Group D X66, agar dilution
Streptococcus Group 9960 = experiment: MIC, standard agar-dilution assay, Streptococcus Group 9960; type: cell-based; details: Streptococcus Group 9960, agar dilution
[10] = tested on: Haemophilus influenzae Holt; experiment: MIC, standard agar-dilution assay, Haemophilus influenzae Holt; type: cell-based
[11] = tested on: Haemophilus influenzae R252; experiment: MIC, standard agar-dilution assay, Haemophilus influenzae R252; type: cell-based
Staphylococcus aureus = experiment: MIC, broth-dilution microtiter test, Staphylococcus aureus; type: cell-based
Source text: (§1) The MIC's in Table X were obtained using conventional broth-dilution microtiter tests.

Streptococcus bovis 80 = experiment: MIC, broth-dilution microtiter test, Streptococcus bovis 80; type: cell-based; details: Streptococcus bovis 80, broth-dilution microtiter
Source text: as §1

[12] = tested on: Pasteurella multocida 17E; experiment: MIC, broth-dilution microtiter test, Pasteurella multocida 17E; type: cell-based; details: Pasteurella multocida 17E, bovine isolate, broth-dilution microtiter
Source text: as §1

[13] = tested on: Pasteurella multocida 60A; experiment: MIC, broth-dilution microtiter test, Pasteurella multocida 60A; type: cell-based
Source text: as §1

[14] = tested on: Pasteurella hemolytica 22C; experiment: MIC, broth-dilution microtiter test, Pasteurella hemolytica 22C; type: cell-based
Source text: as §1

Mycoplasma gallisepticum = experiment: MIC, broth-dilution microtiter test, Mycoplasma gallisepticum; type: cell-based
Source text: as §1

Mycoplasma synoviae = experiment: MIC, broth-dilution microtiter test, Mycoplasma synoviae; type: cell-based
Source text: as §1

Mycoplasma hyorhinis = experiment: MIC, broth-dilution microtiter test, Mycoplasma hyorhinis; type: cell-based
Source text: as §1

Mycoplasma hyopneumoniae = experiment: MIC, broth-dilution microtiter test, Mycoplasma hyopneumoniae; type: cell-based
Source text: as §1

[15] = tested on: Streptococcus pyogenes C203; experiment: In vivo protection of mice experimentally infected with S. pyogenes C203; details: Streptococcus pyogenes, mice, doses given 1 and 4 hours post-infection
Experimental: The C-20 modified derivatives of this invention have shown in vivo antimicrobial activity against experimentally-induced infections in laboratory animals. When two doses of test compound were administered to mice experimentally infected with S. pyogenes C203, the activity observed was measured as an ED50 value [effective dose in mg/kg to protect 50% of the test animals: see Warren Wick, et al., J. Bacteriol. 81, 233-235 (1961)].

[16] = Staphylococcus epidermidis, EPI1
[17] = Staphylococcus epidermidis, EPI2
[18] = Haemophilus influenzae Holt, ampicillin-sensitive strain, read-out: MIC
[19] = Streptococcus equinus, read-out: MIC
[20] = Pasteurella multocida 60A, avian isolate, broth-dilution microtiter, read-out: MIC
[21] = Pasteurella hemolytica 22C, broth-dilution microtiter, read-out: MIC
[22] = Mycoplasma hyorhinis, broth-dilution microtiter, read-out: MIC
[23] = Mesomycoplasma hyopneumoniae, Mycoplasma hyopneumoniae, broth-dilution microtiter, read-out: MIC

CCC1OC(=O)CC(O)C(C)C(OC2OC(C)C(OC3CC(C)(O)C(O)C(C)O3)C(N(C)C)C2O)C(CCF)CC(C)C(=O)C=CC(C)=CC1COC1OC(C)C(O)C(OC)C1OC (stereo not shown) [Compound 8, 20-DH-DO-20-Fluoro-tylosin]
MIC ([1]; Staphylococcus aureus, X1.1): 1 µg/mL (≈ 1.09 µM) | MIC ([2]; Staphylococcus aureus, V41): 1 µg/mL (≈ 1.09 µM) | MIC ([3]; Staphylococcus aureus, X400): 2 µg/mL (≈ 2.17 µM) | MIC ([4]; Staphylococcus aureus, S13E): 1 µg/mL (≈ 1.09 µM) | MIC [5, 16]: 1 µg/mL (≈ 1.09 µM) | MIC [6, 17]: 1 µg/mL (≈ 1.09 µM) | MIC ([7]; read-out: MIC): 4 µg/mL (≈ 4.35 µM) | MIC ([8]; Streptococcus pneumoniae): 64 µg/mL (≈ 69.6 µM) | MIC ([9]; read-out: MIC): > 128 µg/mL | MIC (Streptococcus Group 9960; GROUP9960, read-out: MIC): > 128 µg/mL | MIC [10, 18]: > 128 µg/mL | MIC ([11]; Haemophilus influenzae, R252): 128 µg/mL (≈ 139 µM) | MIC (Staphylococcus aureus): 1.56 µg/mL (≈ 1.7 µM) | MIC (Streptococcus bovis 80; [19]): > 50 µg/mL | MIC ([12]; read-out: MIC): > 50 µg/mL | MIC [13, 20]: > 50 µg/mL | MIC [14, 21]: > 50 µg/mL | MIC (Mycoplasma gallisepticum; Mycoplasmoides gallisepticum): 1.56 µg/mL (≈ 1.7 µM) | MIC (Mycoplasma synoviae; Mycoplasmopsis synoviae, Mycoplasma synoviae, broth-dilution microtiter, read-out: MIC): 12.5 µg/mL (≈ 13.6 µM) | MIC (Mycoplasma hyorhinis; [22]): > 50 µg/mL | MIC (Mycoplasma hyopneumoniae; [23]): > 25 µg/mL

CCC1OC(=O)CC(O)C(C)C(OC2OC(C)C(OC3CC(C)(O)C(O)C(C)O3)C(N(C)C)C2O)C(CCOC(C(F)(F)F)C(F)(F)F)CC(C)C(=O)C=CC(C)=CC1COC1OC(C)C(O)C(OC)C1OC (stereo not shown) [Compound 19, 20-DH-20-O-[2,2,2-Trifluoro-1-(trifluormethyl)ethyl]tylosin]
MIC ([1]; Staphylococcus aureus, X1.1): 4 µg/mL (≈ 3.74 µM) | MIC ([2]; Staphylococcus aureus, V41): 4 µg/mL (≈ 3.74 µM) | MIC ([3]; Staphylococcus aureus, X400): 4 µg/mL (≈ 3.74 µM) | MIC ([4]; Staphylococcus aureus, S13E): 4 µg/mL (≈ 3.74 µM) | MIC [5, 16]: 4 µg/mL (≈ 3.74 µM) | MIC ([6]; Staphylococcus epidermidis EPI2, agar dilution, read-out: MIC): 2 µg/mL (≈ 1.87 µM) | MIC ([7]; read-out: MIC): 8 µg/mL (≈ 7.49 µM) | MIC ([8]; Streptococcus pneumoniae Park I, agar dilution, read-out: MIC): 32 µg/mL (≈ 30 µM) | MIC ([9]; read-out: MIC): > 128 µg/mL | MIC (Streptococcus Group 9960; GROUP9960, read-out: MIC): > 128 µg/mL | MIC [10, 18]: > 128 µg/mL | MIC ([11]; Haemophilus influenzae R252, ampicillin-resistant strain, read-out: MIC): > 128 µg/mL | MIC (Staphylococcus aureus): 12.5 µg/mL (≈ 11.7 µM) | MIC (Streptococcus bovis 80; [19]): > 50 µg/mL | MIC ([12]; read-out: MIC): > 50 µg/mL | MIC [13, 20]: > 50 µg/mL | MIC [14, 21]: > 50 µg/mL | MIC (Mycoplasma gallisepticum; Mycoplasmoides gallisepticum): 3.12 µg/mL (≈ 2.92 µM) | MIC (Mycoplasma synoviae; Mycoplasmopsis synoviae): 12.5 µg/mL (≈ 11.7 µM) | MIC (Mycoplasma hyorhinis; [22]): > 50 µg/mL | MIC (Mycoplasma hyopneumoniae; [23]): > 25 µg/mL

CCC1OC(=O)CC(O)C(C)C(OC2OC(C)C(O)C(N(C)C)C2O)C(CC2OCCO2)CC(C)C(=O)C=CC(C)=CC1COC1OC(C)C(O)C(OC)C1OC (stereo not shown) [Compound 74]
MIC ([1]; Staphylococcus aureus, X1.1): 0.5 µg/mL (≈ 0.613 µM) | MIC ([2]; Staphylococcus aureus, V41): 1 µg/mL (≈ 1.23 µM) | MIC ([3]; Staphylococcus aureus, X400): 2 µg/mL (≈ 2.45 µM) | MIC ([4]; Staphylococcus aureus, S13E): 0.5 µg/mL (≈ 0.613 µM) | MIC [5, 16]: 0.5 µg/mL (≈ 0.613 µM) | MIC [6, 17]: 0.25 µg/mL (≈ 0.306 µM) | MIC ([8]; Streptococcus pneumoniae): 0.25 µg/mL (≈ 0.306 µM) | MIC ([9]; read-out: MIC): 8 µg/mL (≈ 9.8 µM) | MIC (Streptococcus Group 9960; GROUP9960, read-out: MIC): 8 µg/mL (≈ 9.8 µM) | MIC ([10]; Haemophilus influenzae): 32 µg/mL (≈ 39.2 µM) | MIC ([11]; Haemophilus influenzae, R252): 32 µg/mL (≈ 39.2 µM) | MIC (Staphylococcus aureus): 3.12 µg/mL (≈ 3.82 µM) | MIC (Streptococcus bovis 80; [19]): 6.25 µg/mL (≈ 7.66 µM) | MIC ([12]; read-out: MIC): 25 µg/mL (≈ 30.6 µM) | MIC ([13]; Pasteurella multocida, 60A): 50 µg/mL (≈ 61.3 µM) | MIC ([14]; Pasteurella, 22C): 50 µg/mL (≈ 61.3 µM) | MIC (Mycoplasma gallisepticum; Mycoplasmoides gallisepticum): 3.12 µg/mL (≈ 3.82 µM) | MIC (Mycoplasma synoviae; Mycoplasmopsis synoviae): 6.25 µg/mL (≈ 7.66 µM) | MIC (Mycoplasma hyorhinis; Mycoplasma): 50 µg/mL (≈ 61.3 µM) | MIC (Mycoplasma hyopneumoniae; Mesomycoplasma hyopneumoniae): 1.56 µg/mL (≈ 1.91 µM) | ED50 ([15]; C203, sc, subcutaneous, read-out: ED50, Subcutaneous): 3.3 mg/kg | ED50 ([15]; C203, oral, read-out: ED50, Oral): > 25 mg/kg

CCC1OC(=O)CC(O)C(C)C(OC2OC(C)C(OC3CC(C)(O)C(O)C(C)O3)C(N(C)C)C2O)C(CCOc2ccccc2)CC(C)C(=O)C=CC(C)=CC1COC1OC(C)C(O)C(O)C1OC (stereo not shown) [Compound 53, 20-DH-20-O-Phenylmacrocin]
MIC ([1]; Staphylococcus aureus X1.1, agar dilution): 2 µg/mL (≈ 2.04 µM) | MIC ([2]; Staphylococcus aureus V41, penicillin-resistant strain, agar dilution): 2 µg/mL (≈ 2.04 µM) | MIC ([3]; Staphylococcus aureus X400, methicillin-resistant strain, agar dilution): 4 µg/mL (≈ 4.08 µM) | MIC ([4]; Staphylococcus aureus S13E, agar dilution): 2 µg/mL (≈ 2.04 µM) | MIC ([5]; Staphylococcus epidermidis EPI1, agar dilution): 2 µg/mL (≈ 2.04 µM) | MIC ([6]; Staphylococcus epidermidis EPI2, agar dilution): 2 µg/mL (≈ 2.04 µM) | MIC [7]: 4 µg/mL (≈ 4.08 µM) | MIC ([8]; Streptococcus pneumoniae Park I, agar dilution): 32 µg/mL (≈ 32.6 µM) | MIC [9]: -- (Not active at 128 mcg/ml, the highest level tested) | MIC (Streptococcus Group 9960): -- (Not active at 128 mcg/ml, the highest level tested) | MIC ([10]; Haemophilus influenzae Holt, ampicillin-sensitive strain, agar dilution): -- (Not active at 128 mcg/ml, the highest level tested) | MIC ([11]; Haemophilus influenzae R252, ampicillin-resistant strain, agar dilution): -- (Not active at 128 mcg/ml, the highest level tested) | MIC (Staphylococcus aureus; broth-dilution microtiter): 0.39 µg/mL (≈ 0.398 µM) | MIC (Streptococcus bovis 80): 6.25 µg/mL (≈ 6.38 µM) | MIC [12]: 25 µg/mL (≈ 25.5 µM) | MIC ([13]; Pasteurella multocida 60A, avian isolate, broth-dilution microtiter): 12.5 µg/mL (≈ 12.8 µM) | MIC ([14]; Pasteurella hemolytica 22C, broth-dilution microtiter): 25 µg/mL (≈ 25.5 µM) | MIC (Mycoplasma gallisepticum; Mycoplasma gallisepticum, broth-dilution microtiter): < 0.05 µg/mL | MIC (Mycoplasma synoviae; Mycoplasma synoviae, broth-dilution microtiter): 3.12 µg/mL (≈ 3.18 µM) | MIC (Mycoplasma hyorhinis; Mycoplasma hyorhinis, broth-dilution microtiter): 50 µg/mL (≈ 51 µM) | MIC (Mycoplasma hyopneumoniae; Mycoplasma hyopneumoniae, broth-dilution microtiter): 0.78 µg/mL (≈ 0.796 µM)
